# Columns and labels:
# [1] = target: T1, angiotensin converting enzyme (human urinary ACE) (Homo sapiens, UniProt P12821); test: ACE activity assay, I50 (Example 216A); assay type: biochemical; settings: human urinary ACE; Benzoyl-GlyHisLeu 1×10^-4 M; Hepes pH 8.0; 37° C; in vitro; read-out: I50
# T1 construct: ACE purified from human urine; from tissue; host or cells: human urine (ultrafiltration and Sephacryl S-200, first eluting peak; prepared as in Ryan et al., Tissue and Cell 10, 555 (1978))
# [2] = system: pressor effects of angiotensin I; test: oral effectiveness: blood pressure response to angiotensin I in anesthetized rats; assay type: in vivo, rat; settings: oral 20 μmol/kg
# Method in brief: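 Fasted rats under pentobarbital anesthesia (50-60 mg/kg i.p.), ventilated, with carotid arterial pressure recorded; i.v. angiotensin I (80 ng, 160 ng or 400 ng/kg) or angiotensin II (80 ng) challenges repeated at timed intervals after oral gavage of compound (2-20 mg/kg, 10 mg, 17 or 23 μmol/kg) in aqueous NaHCO3.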
# [3] = system: pressor effects of angiotensin I; test: intravenous effectiveness: blood pressure response to angiotensin I in anesthetized rats; assay type: in vivo, rat; settings: for t1/2: recovery of one half of lost responsiveness to angiotensin I 400 ng/kg; for Blood Pressure Response to 400 ng/kg Angiotensin I: i.v. 2 μmol/kg, Ex. 232
# Protocol: Anesthetized rats were prepared as described in Example 228. After the responsiveness of a given rat to angiotensin I was established, the named compound at 2 μmol/kg, in a volume of 15 μl of 0.01N sodium bicarbonate, was injected via a femoral vein. At timed intervals, the effects of angiotensin I, 400 ng/kg, on mean arterial blood pressure were tested. Results are shown below:
# Anesthetized rats were prepared as described in Example 231. After the responsiveness of a given rat to angiotensin I was established, the named compound, at 2 μmol/kg, in a volume of 15 μl of 0.01N sodium bicarbonate, was injected via a femoral vein. At timed intervals, the effects of angiotensin I, 400 ng/kg, on mean arterial blood pressure were tested. Results are shown below:
# Anesthetized rats were prepared as described in Example 239. The animals were administered the named compound via a femoral vein in 15 μl of 0.01N sodium bicarbonate, after the control response to 400 ng/kg of angiotensin I was measured. […] The time required for recovery of one half of the lost responsiveness to angiotensin I, following injection of the named compound, was designated t1/2. […] Results are shown for two dose levels:
# Anesthetized rats were prepared as described in Example 242. The named compound was administered intravenously via a femoral vein, at the stated dose, in 15 μl of 0.01N sodium bicarbonate. The response to intravenous administration was a rapid decrease in responsiveness to Angtiotensin I, 400 ng/kg, followed by a gradual recovery to the pretreatment level of responsiveness. The time required for recovery of one half the lost responsiveness to angiotensin I, following injection of the named compound, is designated t1/2. […] Results are shown for the three dose levels:
# The intravenous effectiveness of the named compound was examined by following the procedure described in Example 244 except that 1 μmole/kg of the drug was given intravenously. The results are shown below:
# The intravenous effectiveness of the named compound was examined by following the procedure described in Example 246 except that 1 μmole/Kg of the drug was given intravenously.
# T1 sequence (P12821 30-1232 limits assumed): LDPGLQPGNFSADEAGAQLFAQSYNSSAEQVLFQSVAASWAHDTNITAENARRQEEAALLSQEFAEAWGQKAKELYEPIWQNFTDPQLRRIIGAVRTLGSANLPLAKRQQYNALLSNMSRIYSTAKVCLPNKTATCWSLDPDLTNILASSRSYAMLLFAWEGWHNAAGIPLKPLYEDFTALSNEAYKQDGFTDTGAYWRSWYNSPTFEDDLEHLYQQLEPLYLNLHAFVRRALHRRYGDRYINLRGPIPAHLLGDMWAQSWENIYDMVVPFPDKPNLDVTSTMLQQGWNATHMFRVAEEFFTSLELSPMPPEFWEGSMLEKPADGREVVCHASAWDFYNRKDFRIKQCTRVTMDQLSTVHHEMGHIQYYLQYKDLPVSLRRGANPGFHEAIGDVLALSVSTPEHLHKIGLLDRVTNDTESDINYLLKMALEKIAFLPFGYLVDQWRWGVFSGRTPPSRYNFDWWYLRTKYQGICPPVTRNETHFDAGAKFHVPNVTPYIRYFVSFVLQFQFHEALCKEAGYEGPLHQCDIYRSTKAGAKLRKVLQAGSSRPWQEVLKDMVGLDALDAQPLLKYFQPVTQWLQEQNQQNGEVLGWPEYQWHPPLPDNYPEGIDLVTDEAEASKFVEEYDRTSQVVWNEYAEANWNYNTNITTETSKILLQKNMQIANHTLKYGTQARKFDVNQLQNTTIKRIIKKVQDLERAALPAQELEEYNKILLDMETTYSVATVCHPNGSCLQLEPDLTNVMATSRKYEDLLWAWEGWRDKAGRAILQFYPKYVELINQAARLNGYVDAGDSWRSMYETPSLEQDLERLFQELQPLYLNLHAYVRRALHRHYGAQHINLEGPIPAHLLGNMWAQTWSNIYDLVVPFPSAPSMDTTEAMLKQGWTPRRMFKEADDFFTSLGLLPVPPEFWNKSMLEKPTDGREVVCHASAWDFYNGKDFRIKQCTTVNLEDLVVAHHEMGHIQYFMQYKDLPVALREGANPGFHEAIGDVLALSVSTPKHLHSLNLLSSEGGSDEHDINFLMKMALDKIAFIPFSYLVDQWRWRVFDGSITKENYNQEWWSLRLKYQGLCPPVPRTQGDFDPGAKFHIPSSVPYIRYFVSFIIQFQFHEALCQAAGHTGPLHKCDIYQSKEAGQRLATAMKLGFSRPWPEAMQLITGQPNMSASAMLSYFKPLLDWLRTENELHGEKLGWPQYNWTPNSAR
smiles,measurement,setting,value
"O=C(NC(Cc1ccccc1)C(=O)SCCC(=O)N1CCC[C@H]1C(=O)O)c1ccccc1 (stereo partly drawn) [(III), 3-benzoylphenylalanylthio-propanoyl-L-proline]",IC50,[1],700 nM
"C[C@H](CSC(=O)[C@H](Cc1ccccc1)NC(=O)c1ccccc1)C(=O)N1CCC[C@H]1C(=O)O [Example 196, N-[3-(benzoyl-L-phenylalanylthio)-2-D-methyl-propanoyl]-L-proline]",IC50,[1],16 nM
C[C@H](CSC(=O)[C@H](Cc1c[nH]c2ccccc12)NC(=O)c1ccccc1)C(=O)N1CCC[C@H]1C(=O)O [N-alpha-[3-(N-alpha-benzoyl-L-tryptophylthio)-2-D-methylpropanoyl]-1-proline],Blood Pressure Response to 400 ng/kg of Angiotensin I,"[2]; 3 min, Ex. 242",92 % of Control
same,Blood Pressure Response to 400 ng/kg of Angiotensin I,"[2]; 7 min, Ex. 242",64 % of Control
same,Blood Pressure Response to 400 ng/kg of Angiotensin I,"[2]; 21 min, Ex. 242",32 % of Control
same,Blood Pressure Response to 400 ng/kg of Angiotensin I,"[2]; 26 min, Ex. 242",40 % of Control
same,Blood Pressure Response to 400 ng/kg of Angiotensin I,"[2]; 32 min, Ex. 242",40 % of Control
same,Blood Pressure Response to 400 ng/kg of Angiotensin I,"[2]; 38 min, Ex. 242",20 % of Control
same,Blood Pressure Response to 400 ng/kg of Angiotensin I,"[2]; 50 min, Ex. 242",8 % of Control
same,Blood Pressure Response to 400 ng/kg of Angiotensin I,"[2]; 56 min, Ex. 242",8 % of Control
same,Blood Pressure Response to 400 ng/kg of Angiotensin I,"[2]; 70 min, Ex. 242",8 % of Control
same,Blood Pressure Response to 400 ng/kg of Angiotensin I,"[2]; 79 min, Ex. 242",20 % of Control
same,Blood Pressure Response to 400 ng/kg of Angiotensin I,"[2]; 87 min, Ex. 242",12 % of Control
same,Blood Pressure Response to 400 ng/kg of Angiotensin I,"[2]; 104 min, Ex. 242",12 % of Control
same,Blood Pressure Response to 400 ng/kg of Angiotensin I,"[2]; 114 min, Ex. 242",20 % of Control
same,Blood Pressure Response to 400 ng/kg of Angiotensin I,"[2]; 124 min, Ex. 242",40 % of Control
same,Blood Pressure Response to 400 ng/kg of Angiotensin I,"[2]; 136 min, Ex. 242",40 % of Control
same,Blood Pressure Response to 400 ng/kg of Angiotensin I,"[2]; 148 min, Ex. 242",36 % of Control
same,Blood Pressure Response to 400 ng/kg of Angiotensin I,"[2]; 173 min, Ex. 242",48 % of Control
same,Blood Pressure Response to 400 ng/kg of Angiotensin I,"[2]; 186 min, Ex. 242",48 % of Control
same,Blood Pressure Response to 400 ng/kg of Angiotensin I,"[2]; 199 min, Ex. 242",68 % of Control
same,Blood Pressure Response to 400 ng/kg of Angiotensin I,"[2]; 212 min, Ex. 242",64 % of Control
same,Blood Pressure Response to 400 ng/kg of Angiotensin I,"[2]; 226 min, Ex. 242",64 % of Control
same,Blood Pressure Response to 400 ng/kg of Angiotensin I,"[2]; 242 min, Ex. 242",80 % of Control
same,Blood Pressure Response to 400 ng/kg of Angiotensin I,"[2]; 260 min, Ex. 242",80 % of Control
same,Blood Pressure Response to 400 ng/kg of Angiotensin I,"[2]; 291 min, Ex. 242",84 % of Control
same,t1/2,[3]; i.v. 0.193 μmol/kg,11 min
same,t1/2,[3]; i.v. 0.58 μmol/kg,11 min
same,t1/2,[3]; i.v. 1.93 μmol/kg,15 min
C[C@H](CSC(=O)CNC(=O)c1ccccc1)C(=O)N1CCC[C@H]1C(=O)O [N-alpha-[3-(N-alpha-benzoylglycylthio)-2-D-methylpropanoyl]-L-proline],Blood Pressure Response to 400 ng/kg of Angiotensin I,"[2]; 1 min, Ex. 239",95 % of Control
same,Blood Pressure Response to 400 ng/kg of Angiotensin I,"[2]; 6 min, Ex. 239",95 % of Control
same,Blood Pressure Response to 400 ng/kg of Angiotensin I,"[2]; 11 min, Ex. 239",95 % of Control
same,Blood Pressure Response to 400 ng/kg of Angiotensin I,"[2]; 22 min, Ex. 239",92 % of Control
same,Blood Pressure Response to 400 ng/kg of Angiotensin I,"[2]; 28 min, Ex. 239",68 % of Control
same,Blood Pressure Response to 400 ng/kg of Angiotensin I,"[2]; 33 min, Ex. 239",61 % of Control
same,Blood Pressure Response to 400 ng/kg of Angiotensin I,"[2]; 39 min, Ex. 239",58 % of Control
same,Blood Pressure Response to 400 ng/kg of Angiotensin I,"[2]; 45 min, Ex. 239",47 % of Control
same,Blood Pressure Response to 400 ng/kg of Angiotensin I,"[2]; 60 min, Ex. 239",47 % of Control
same,Blood Pressure Response to 400 ng/kg of Angiotensin I,"[2]; 67 min, Ex. 239",45 % of Control
same,Blood Pressure Response to 400 ng/kg of Angiotensin I,"[2]; 74 min, Ex. 239",47 % of Control
same,Blood Pressure Response to 400 ng/kg of Angiotensin I,"[2]; 82 min, Ex. 239",47 % of Control
same,Blood Pressure Response to 400 ng/kg of Angiotensin I,"[2]; 92 min, Ex. 239",47 % of Control
same,Blood Pressure Response to 400 ng/kg of Angiotensin I,"[2]; 137 min, Ex. 239",55 % of Control
same,Blood Pressure Response to 400 ng/kg of Angiotensin I,"[2]; 142 min, Ex. 239",55 % of Control
same,Blood Pressure Response to 400 ng/kg of Angiotensin I,"[2]; 152 min, Ex. 239",47 % of Control
same,Blood Pressure Response to 400 ng/kg of Angiotensin I,"[2]; 185 min, Ex. 239",63 % of Control
same,Blood Pressure Response to 400 ng/kg of Angiotensin I,"[2]; 207 min, Ex. 239",79 % of Control
same,Blood Pressure Response to 400 ng/kg of Angiotensin I,"[2]; 230 min, Ex. 239",74 % of Control
same,t1/2,[3]; i.v. 0.23 μmol/kg,26 min
same,t1/2,[3]; i.v. 0.7 μmol/kg,36 min
C[C@H](CSC(=O)[C@H](Cc1ccccc1)NC(=O)OC(C)(C)C)C(=O)N1CCC[C@H]1C(=O)O [N-alpha-[3-(N-alpha-tert-butyloxycarbonyl-L-phenylalanylthio)-2-D-methylpropanoyl]-L-proline],Blood Pressure Response to 400 ng/kg of Angiotensin I,"[2]; 3 min, Ex. 233",100 % of Control
same,Blood Pressure Response to 400 ng/kg of Angiotensin I,"[2]; 11 min, Ex. 233",43 % of Control
same,Blood Pressure Response to 400 ng/kg of Angiotensin I,"[2]; 22 min, Ex. 233",27 % of Control
same,Blood Pressure Response to 400 ng/kg of Angiotensin I,"[2]; 29 min, Ex. 233",24 % of Control
same,Blood Pressure Response to 400 ng/kg of Angiotensin I,"[2]; 34 min, Ex. 233",22 % of Control
same,Blood Pressure Response to 400 ng/kg of Angiotensin I,"[2]; 51 min, Ex. 233",19 % of Control
same,Blood Pressure Response to 400 ng/kg Angiotensin I,[3]; 0.5 min,0 % of Control
same,Blood Pressure Response to 400 ng/kg Angiotensin I,[3]; 3 min,19 % of Control
same,Blood Pressure Response to 400 ng/kg Angiotensin I,[3]; 9 min,19 % of Control
same,Blood Pressure Response to 400 ng/kg Angiotensin I,[3]; 13 min,22 % of Control
same,Blood Pressure Response to 400 ng/kg Angiotensin I,[3]; 18 min,31 % of Control
same,Blood Pressure Response to 400 ng/kg Angiotensin I,[3]; 22 min,31 % of Control
same,Blood Pressure Response to 400 ng/kg Angiotensin I,[3]; 34 min,50 % of Control
same,Blood Pressure Response to 400 ng/kg Angiotensin I,[3]; 47 min,63 % of Control
same,Blood Pressure Response to 400 ng/kg Angiotensin I,[3]; 65 min,78 % of Control
same,Blood Pressure Response to 400 ng/kg Angiotensin I,[3]; 103 min,75 % of Control
same,Blood Pressure Response to 400 ng/kg Angiotensin I,[3]; 113 min,94 % of Control

# — patent US4745124A, “Orally effective anti-hypertensive agents” (priority 1983, dated 1988)
